The record followed here is patent publication US8383623B2, “Phthalazin-(2H)-one inhibitors of kinases” (Abbott Laboratories, priority 2010, dated 2013).

This test deals with T1, Cdc7 (BEV coexpressed huCDC7/DBF4) (Homo sapiens, UniProt O00311).
T1 construct: made in house; host or cells: BEV (baculovirus expression vector)
T1 sequence (O00311 whole entry): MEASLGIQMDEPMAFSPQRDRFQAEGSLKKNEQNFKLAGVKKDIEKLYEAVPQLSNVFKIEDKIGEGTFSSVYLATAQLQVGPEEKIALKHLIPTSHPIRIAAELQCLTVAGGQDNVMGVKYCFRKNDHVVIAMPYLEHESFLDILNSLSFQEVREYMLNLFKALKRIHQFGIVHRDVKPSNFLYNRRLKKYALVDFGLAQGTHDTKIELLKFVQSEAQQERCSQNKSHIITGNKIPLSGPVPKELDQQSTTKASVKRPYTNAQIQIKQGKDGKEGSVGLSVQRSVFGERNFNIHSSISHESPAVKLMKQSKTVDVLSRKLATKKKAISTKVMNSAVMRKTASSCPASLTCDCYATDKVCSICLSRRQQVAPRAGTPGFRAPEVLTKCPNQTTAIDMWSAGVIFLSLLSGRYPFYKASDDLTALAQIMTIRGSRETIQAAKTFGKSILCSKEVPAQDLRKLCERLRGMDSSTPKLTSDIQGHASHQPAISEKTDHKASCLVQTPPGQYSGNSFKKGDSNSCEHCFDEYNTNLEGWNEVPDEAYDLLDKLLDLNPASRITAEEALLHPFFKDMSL
T1 sequence (Q9UBU7 whole entry partner): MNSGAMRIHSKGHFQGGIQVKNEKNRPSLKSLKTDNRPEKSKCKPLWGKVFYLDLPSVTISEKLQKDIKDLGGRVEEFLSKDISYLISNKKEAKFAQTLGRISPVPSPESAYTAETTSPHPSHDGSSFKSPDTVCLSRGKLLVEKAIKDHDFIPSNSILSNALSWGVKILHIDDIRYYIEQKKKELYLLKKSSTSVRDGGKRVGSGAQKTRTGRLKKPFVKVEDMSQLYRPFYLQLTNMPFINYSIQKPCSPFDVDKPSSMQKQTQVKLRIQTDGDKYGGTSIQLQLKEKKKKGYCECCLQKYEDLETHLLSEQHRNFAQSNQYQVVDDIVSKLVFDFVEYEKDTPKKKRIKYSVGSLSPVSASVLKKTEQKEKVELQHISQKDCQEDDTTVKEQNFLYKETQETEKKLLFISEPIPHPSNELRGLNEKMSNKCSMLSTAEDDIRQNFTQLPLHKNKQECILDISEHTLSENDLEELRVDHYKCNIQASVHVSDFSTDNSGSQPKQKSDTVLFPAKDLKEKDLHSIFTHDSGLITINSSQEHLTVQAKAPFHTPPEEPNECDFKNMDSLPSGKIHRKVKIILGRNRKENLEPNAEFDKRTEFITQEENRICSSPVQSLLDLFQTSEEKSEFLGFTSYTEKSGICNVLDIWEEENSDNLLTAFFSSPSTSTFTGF
Put plainly: Cdc7 enzyme inhibition assay ([33P]-ATP, biotinylated peptide substrate, FlashPlate). The format is biochemical. The settings on record: Ki generated from IC50 assuming ATP-competitive inhibition, apparent ATP Km 0.7 μM; 1 μM ATP, 1 hr. The procedure:
This example describes the assays that may be used to identify compounds having kinase activity.
Cdc7 (BEV coexpressed huCDC7/DBF4) is prepared internally. Cdc7 assays are conducted as follows with final concentrations as listed. In 384-well v-bottom polypropylene plates, 6 μL compound (2% DMSO), is mixed with 6 μL of Cdc7 (2 ug/mL), and Jerini peptide substrate A-A11 (biotin-C6linker-TPSDSLIYDDGLS) (2 μM), followed by immediate initiation with 6 μL λ-[^33P]-ATP (1 μM, 20 mCi/μmol) using a reaction buffer comprising 25 mM HEPES, pH 7.5, 1 mM DTT, 10 mM MgCl2, 100 μM Na3VO4, 0.075 mg/ml Triton X-100. Reactions are quenched after 1 hr by the addition of 90 μL stop buffer (50 mM EDTA, 2M NaCl). 85 μL of the stopped reactions are transferred to 384-well streptavidin-coated plates (FlashPlate Plus, Perkin Elmer), incubated 30 minutes at room temperature and washed 3 times with 0.05% Tween-20/PBS using an ELX-405 automated plate washer (BioTek), and counted on a TopCount Scintillation Plate Reader (Packard). IC50 values are determined via non-linear regression fitting of enzyme inhibition data and corresponding Ki values are generated assuming ATP-competitive (equilibrium) inhibition and using the experimentally determined apparent ATP Km of 0.7 μM (as determined using the above assay condition, but varying ATP).
Table 1 depicts enzyme inhibition data (Ki) for exemplary compounds. In Table 1, “A” represents a K, of less than 10 nM, “B” represents a K, of between 10 nM and 100 nM, and “C” represents a Ki of greater than 100 nM.
On to `Cn1ccc(Cc2n[nH]c(=O)c3ccc(-c4c[nH]c5ncccc45)cc23)n1` [Example 13, 4-[(1-methyl-1H-pyrazol-3-yl)methyl]-6-(1H-pyrrolo [2,3-b]pyridin-3-yl)phthalazin-1(2H)-one], for which the Ki fell in the range of 10 to 100 nM. As for `O=c1[nH]nc(CC2CCCCN2)c2cc(-c3c[nH]c4ncccc34)ccc12` (stereo not shown) [Example 10, 4-(piperidin-2-ylmethyl)-6-(1H-pyrrolo[2,3-b]pyridin-3-yl)phthalazin-1(2H)-one], the Ki is over 100 nM. The result for `O=c1[nH]nc(Cc2cccnc2)c2cc(-c3c[nH]c4ncccc34)ccc12` [Example 8, 4-(pyridin-3-ylmethyl)-6-(1H-pyrrolo[2,3-b]pyridin-3-yl)phthalazin-1(2H)-one] reads under 10 nM; that for `O=c1[nH]nc(Cc2ccccc2)c2cc(-c3cn[nH]c3)ccc12` [Example 3, 4-benzyl-6-(1H-pyrazol-4-yl)phthalazin-1(2H)-one], 10 to 100 nM. `O=c1[nH]nc(CC2CCCNC2)c2cc(-c3c[nH]c4ncccc34)ccc12` (stereo not shown) [Example 7, 4-(piperidin-3-ylmethyl)-6-(1H-pyrrolo[2,3-b]pyridin-3-yl)phthalazin-1(2H)-one]: the Ki is over 100 nM.

Consider `O=c1[nH]nc(Cc2ccccc2)c2cc(-c3ccncc3)ccc12` [Example 2, 4-benzyl-6-(pyridin-4-yl)phthalazin-1(2H)-one], for which the Ki is over 100 nM. Consider `CN(C)c1ccc(Cc2n[nH]c(=O)c3ccc(-c4c[nH]c5ncccc45)cc23)cc1` [Example 11, 4-[4-(dimethylamino)benzyl]-6-(1H-pyrrolo[2,3-b]pyridin-3-yl)phthalazin-1(2H)-one], for which the Ki was 10 to 100 nM. `O=c1[nH]nc(CC2CCNCC2)c2cc(-c3c[nH]c4ncccc34)ccc12` [Example 9, 4-(piperidin-4-ylmethyl)-6-(1H-pyrrolo[2,3-b]pyridin-3-yl)phthalazin-1(2H)-one]: the Ki fell in the range of 10 to 100 nM. On to “4-(2,5-dichlorobenzyl)-6-(1H-pyrrolo[2,3-b]pyridin-3-yl)phthalazin-1(2H)-one [Example 6]”, for which the Ki is over 100 nM. As for `O=c1[nH]nc(Cc2ccccc2)c2cc(-c3c[nH]c4ncccc34)ccc12` [Example 1, 4-benzyl-6-(1H-pyrrolo[2,3-b]pyridin-3-yl)phthalazin-1(2H)-one], the Ki was under 10 nM. For the molecule `CC(=O)Nc1ccc(Cc2n[nH]c(=O)c3ccc(-c4c[nH]c5ncccc45)cc23)cc1` [Example 12, N-(4-{[4-oxo-7-(1H-pyrrolo[2,3-b]pyridin-3-yl)-3,4-dihydrophthalazin-1-yl]methyl}phenyl)acetamide], the Ki was under 10 nM.

Consider `O=c1[nH]nc(Cc2ccccc2)c2cc(-c3cccnc3)ccc12` [Example 4, 4-benzyl-6-(pyridin-3-yl)phthalazin-1(2H)-one], for which the Ki is over 100 nM. With `O=c1[nH]nc(Cc2ccncc2)c2cc(-c3c[nH]c4ncccc34)ccc12` [Example 5, 4-(pyridin-4-ylmethyl)-6-(1H-pyrrolo[2,3-b]pyridin-3-yl)phthalazin-1(2H)-one], the Ki was under 10 nM.
